Experiment [1] addresses T1, human TLR4/MD2/CD14 (Homo sapiens, UniProt O00206+Q9Y6Y9).
T1 construct: host or cells: HEK 293T
Put plainly: NF-κB activation in HEK 293T cells stably transfected with human TLR4/MD2/CD14. The class given is cell-based. The following applies: 103/104 at 0.1, 1 and 10 μg mL−1; E. coli LPS 10 ng mL−1; 4 h. Here is the method: Induction of NF-κB activation was determined in triplicate cultures of HEK 293T cells stably transfected with human or mouse (a) TLR4/MD2/CD14 and (b) TLR2 and transiently transfected with pELAM-Luc and pRL-TK plasmids. Forty-four h post-transfection, cells were treated with (B) E. coli LPS (10 ng mL^−1), (C) Pam3CysSK4 (1 μg mL^−1), (D, E and F) 103 (0.1, 1 and 10 μg mL^−1, respectively), (G, H and I) 104 (0.1, 1 and 10 μg mL^−1, respectively) or (A) were left untreated (control). Forty-eight h post-transfection, NF-κB activation was determined by firefly luciferase activity relative to Renilla luciferase activity. n.a. indicates not analyzed. […]
The day before transfection, HEK 293T wild type cells and HEK 293T cells stably transfected with human and murine TLR4/MD2/CD14 and human and murine TLR2 were plated in 96-well tissue culture plates (16,000 cells/well). […] The luciferase activity was measured using the Dual-Luciferase Reporter Assay System (Promega) according to the manufacturer's instructions and a combination luminometer/fluorometer microplate reader (BMG Labtech). […]

Experiment [2] has as its system Mono Mac 6 (MM6) cells. The experiment can be described thus: TNF-α induction in human monocytic Mono Mac 6 cells (ELISA). The class given is cell-based. The note with it: 5.5 h at 37° C., increasing concentrations. Here is the method:
MM6 cells were incubated for 5.5 h at 37° C. with increasing concentrations of E. coli LPS and synthetic compounds 103 and 104 as indicated. TNF-α protein in cell supernatants was measured using ELISA. (103 and 104 show background values and therefore overlap in the figure).
We have chemically synthesized the tetra-acylated lipid As 103 and 104 (FIG. 8) to study whether LPS derived from P. gingivalis can induce cellular activation in a TLR2- or TLR4-dependent manner. Furthermore, there are indications that LPS of P. gingivalis can antagonize cytokine production induced by enteric LPS and therefore these properties have also been studied. […]
Mono Mac 6 (MM6) cells, provided by Dr. H. W. L. Ziegler-Heitbrock (Institute for Inhalationbiology, Munich, Germany), were cultured in RPMI 1640 medium with L-glutamine (BioWhittaker) supplemented with penicillin (100 u mL^−1)/streptomycin (100 μg mL^−1; Mediatech, OPI supplement (1%; Sigma; containing oxaloacetate, pyruvate and bovine insulin) and fetal calf serum (FCS; 10%; HyClone). New batches of frozen cell stock were grown up every 2 months and growth morphology evaluated. Before each experiment, MM6 cells were incubated with calcitriol (10 ng mL^−1; Sigma) for 2 days to differentiate into macrophage like cells. […]

Data on two compounds can be found in patent US9309276B2, “Synthetic lipid A derivative” (University of Georgia Research Foundation, Inc., priority 2007, dated 2016).

T1 sequence (O00206 24-839): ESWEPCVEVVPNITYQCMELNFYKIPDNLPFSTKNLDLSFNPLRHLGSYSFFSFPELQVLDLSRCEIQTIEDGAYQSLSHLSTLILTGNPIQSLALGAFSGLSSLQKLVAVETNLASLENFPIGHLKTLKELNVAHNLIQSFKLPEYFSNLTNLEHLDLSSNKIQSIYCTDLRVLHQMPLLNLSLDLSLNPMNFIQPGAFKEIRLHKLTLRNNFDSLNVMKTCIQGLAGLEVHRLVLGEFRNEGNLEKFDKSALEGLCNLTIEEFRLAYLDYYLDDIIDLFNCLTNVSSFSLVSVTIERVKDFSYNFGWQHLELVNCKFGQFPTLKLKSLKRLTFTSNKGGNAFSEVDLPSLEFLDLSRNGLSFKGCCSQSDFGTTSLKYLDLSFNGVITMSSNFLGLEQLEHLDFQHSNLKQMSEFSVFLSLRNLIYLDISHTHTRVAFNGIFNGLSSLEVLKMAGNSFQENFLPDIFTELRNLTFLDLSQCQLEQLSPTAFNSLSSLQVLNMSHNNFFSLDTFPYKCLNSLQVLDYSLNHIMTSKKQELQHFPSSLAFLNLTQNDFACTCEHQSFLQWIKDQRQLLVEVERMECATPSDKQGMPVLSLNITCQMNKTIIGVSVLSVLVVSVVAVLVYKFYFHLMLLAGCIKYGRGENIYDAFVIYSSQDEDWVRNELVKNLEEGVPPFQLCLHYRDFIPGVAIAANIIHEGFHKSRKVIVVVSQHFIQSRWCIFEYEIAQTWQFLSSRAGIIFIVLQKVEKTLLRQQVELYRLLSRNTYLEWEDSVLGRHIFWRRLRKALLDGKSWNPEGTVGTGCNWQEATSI
T1 sequence (Q9Y6Y9 19-160): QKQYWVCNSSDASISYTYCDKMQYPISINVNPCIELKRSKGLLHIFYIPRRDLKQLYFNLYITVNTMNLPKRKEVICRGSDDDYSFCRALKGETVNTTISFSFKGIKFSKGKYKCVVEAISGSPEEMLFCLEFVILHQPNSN

On to `CCCCCCCCCCCCCCCC(=O)O[C@H](CCCCCCCCCCCC(C)C)CC(=O)N[C@H]1[C@H](OC[C@H]2O[C@H](OP(=O)(O)O)[C@H](NC(=O)C[C@H](O)CCCCCCCCCCCC(C)C)[C@@H](OC(=O)C[C@H](O)CCCCCCCCCCCCC)[C@@H]2O)O[C@H](CO)[C@@H](O)[C@@H]1O` [Compound 103, 6-O-{2-Deoxy-2-[(R)-3-hexadecanoyloxy-15-methyl-hexadecanoylamino]-β-D-glucopyranosyl}-3-O—[(R)-3-hydroxy-hexadecanoyl]-2-deoxy-2-[(R)-3-hydroxy-15-methyl-hexadecanoylamino]-α-D-glucopyranose 1-phosphate], for which the “NF-κB activation, human TLR4/MD2/CD14” value in experiment [1] is given as “No activation of NF-κB”. Also, the “TNF-α induction (in words)” value in experiment [2] is recorded as “did not exhibit any activity”.
Turning to `CCCCCCCCCCCCCCCC(=O)O[C@H](CCCCCCCCCCCC(C)C)CC(=O)N[C@H]1[C@H](OC[C@H]2O[C@H](OP(=O)(O)O)[C@H](NC(=O)C[C@H](O)CCCCCCCCCCCC(C)C)[C@@H](O)[C@@H]2O)O[C@H](CO)[C@@H](O)[C@@H]1ONC(=O)C[C@H](O)CCCCCCCCCC(C)C` [Compound 104, 6-O-{2-Deoxy-2-[(R)-3-hexadecanoyloxy-15-methyl-hexadecanoylamino]-3-O—[(R)-3-hydroxy-13-methyl-tetradecanoylamino]-β-D-glucopyranosyl}-2-deoxy-2-[(R)-3-hydroxy-15-methyl-hexadecanoylamino]-α-D-glucopyranose 1-phosphate], the “NF-κB activation, human TLR4/MD2/CD14” value in experiment [1] was “No activation of NF-κB”. Moreover, the “TNF-α induction (in words)” value in experiment [2] is “did not exhibit any activity”.
